Source: US20210161868A1, “ANTI-INFLAMMATORY THERAPY IN ARRHYTHMOGENIC CARDIOMYOPATHY (ACM)” (Beth Israel Deaconess Medical Center, Inc., priority 2018, published 2021)
“Also recorded” adds a separate entry of the source.

Experiments:
[1] = system: neonatal rat ventricular myocytes (NRVMs) expressing JUP^2157del2; test: ACM features (protein distribution, immunofluorescence) in NRVMs expressing mutant plakoglobin; format: cell-based; parameters: pattern of distribution of plakoglobin, Cx43 and GSK3β: dose or concentration left out as unconfirmed
Source text: All animal studies were in full compliance with policies of Beth Israel Deaconess Medical Center, Johns Hopkins School of Medicine and St. George's University of London. They also conformed to the Guide for the Care and Use of Laboratory Animals from the National Institutes of Health (NIH publication no. 85-23, revised 1996). In vitro studies involved transfection of cultured neonatal rat ventricular myocytes with a mutant allele of the desmosomal protein plakoglobin (2157de12) as previously described.^15 In vivo studies were performed in mice with homozygous knock-in of a mutant form of Dsg2, the gene encoding the desmosomal cadherin desmoglein-2 (Dsg2^mut/mut mice) as previously described.^6 This mutation entails loss of exons 4 and 5 which causes a frameshift and premature termination of translation.
Primary cultures were prepared from disaggregated ventricles of 1-day-old Wistar rat pups (Charles River) as previously described.^15 Cell suspensions were pre-plated to reduce fibroblast content, placed in collagen-coated chamber slides at a density of 2.4×10^5 cells/cm^2, and grown for 4 days at 37° C. in M199 medium (GIBCO) (supplemented with penicillin, 20 U/mL; streptomycin, 20 μg/mL; 10% neonatal calf serum and 0.1 mM bromodeoxyuridine) in a humidified atmosphere containing 1% CO2. Epinephrine (0.01 μmol/mL) was added during the first 24 hours of culture. […]

Dsg2^mut/mut mice = test: Myocardial histology, TUNEL, immunofluorescence and immunoperoxidase in Dsg2^mut/mut mice; format: in vivo
Protocol: Three cohorts of mice at 8 weeks of age were anesthetized and implanted with subcutaneous osmotic mini-pumps (Alzet, Model 1004). These included: 1) Dsg2^mut/mut mice with pumps containing 50 μg/μL Bay11-7082 in a vehicle of 65% DMSO, 15% ethanol, and 20% saline; 2) Dsg2^mut/mut mice with pumps containing an equivalent volume of vehicle; and 3) wildtype mice with pumps containing vehicle. Mice in cohort 1 received 5 mg/kg/day of Bay11-7082 by continuous infusion; those in cohorts 2 and 3 received an equivalent volume of vehicle each day for 4 weeks. At 12 weeks of age, mice were re-anesthetized and new Alzet pumps were implanted for an additional 4 weeks of treatment.
Immunofluorescence staining was used to characterize the distribution of selected proteins at cell-cell junctions as previously reported.^6,15 Deparaffinized slide-mounted myocardial sections (5 μm thick) were rehydrated and heated in citrate buffer (10 mmol/L, pH 6.0) to enhance specific immunostaining. After being cooled to room temperature, tissue sections were simultaneously permeabelized and blocked by incubating them in PBS containing 1% Triton X-100, 3% normal goat serum and 1% bovine serum albumin. The sections were then incubated first with primary antibodies and then with Cy3-conjugated goat anti-rabbit IgG (Jackson Immunolabs, 1:400). Primary antibodies included rabbit polyclonal anti-Cx43 (SIGMA C6219, 1:200), anti-N-cadherin (SIGMA C3678, 1:400), anti-plakoglobin (Thermo Fisher Scientific PA5-17320, 1:500), anti-GSK3β (Cell Signaling Technology 27C10, 9315S, 1:80) and anti-SAP97 (Abcam, ab134156, 1:200). Immunostained preparations were visualized by confocal microscopy. Additional sections prepared with Masson trichrome and hematoxylin & eosin stains were examined by light microscopy.
Immunoperoxidase staining was used to detect expression of selected cytokines in sections of mouse myocardium as previously reported.^12 Slide-mounted paraffin sections were heated to 60° C. for 80 minutes, cooled to room temperature, deparaffinized, and rehydrated. Antigen retrieval was achieved by heating the samples in citrate buffer (pH 6.0) to boiling followed by cooling to room temperature. Immunohistochemical staining was performed using conventional methods (Universal DAKO EnVision System; peroxidase). Once endogenous peroxidase activity had been blocked, primary antibody was applied followed by incubation with horseradish peroxidase-labeled polymer. The reaction was completed with an enzyme/substrate system, with diaminobenzidine as the chromogen substrate. The tissue was counterstained with Harris hematoxylin. Primary antibodies included rabbit polyclonal anti-TNFα (AbCam ab34674, 1:50 dilution), anti-IL-1(3 (AbCam ab9722, 1:500) and anti-MCP-1α (Novus Biologicals NBP2-41209, 1:250). In each experiment, control, vehicle-treated and drug-treated samples were batched to ensure identical staining and signal-generating conditions.
Immunoperoxidase staining using conventional techniques was also used to detect T-cells and macrophages in myocardial tissue sections from Dsg2^mut/mut mice. T-cells were identified using an anti-CD3 antibody (Abcam ab16669, 1:200 dilution) and macrophages were marked with an anti-CD68 antibody (Abcam ab127055, 1:400). After standard development in diaminobenzidine, sections were counterstained with hematoxylin and examined qualitatively by light microscopy.

[2] = Dsg2^mut/mut mice, continuous infusion over 8 weeks

Cc1ccc(S(=O)(=O)/C=C/C#N)cc1 [Bay 11-7082]
in vitro readouts of the ACM phenotype (plakoglobin, Cx43, apoptosis, cytokines) ([1]; NRVMs expressing mutant plakoglobin): blocked; also recorded: completely reversed | pattern of distribution of plakoglobin, Cx43 and GSK3β ([1]; transfected NRVMs, Bay11-7082, 24 hours): normalized; also recorded: indistinguishable from that seen in control | abnormal distributions of plakoglobin, Cx43, GSK3β and SAP97 (Dsg2^mut/mut mice; [2]): normalized | amount of ventricular myocardial necrosis and fibrosis (Dsg2^mut/mut mice; [2]): marked reduction | number of apoptotic cells seen by TUNEL labeling (Dsg2^mut/mut mice; [2]): significant reduction | abnormal distributions of plakoglobin, Cx43, GSK3β and SAP97 (Dsg2^mut/mut mice; Dsg2^mut/mut mice, continuous infusion over 8 weeks, listed as Bay11-7082): fully corrected | immunoreactive signal intensity for IL-1β, TNFα and MCP-1α in myocytes and inflammatory cells (Dsg2^mut/mut mice; myocardial sections of Dsg2^mut/mut mice): reduced | total number of infiltrating inflammatory cells in the heart (Dsg2^mut/mut mice; survey of myocardial sections, Dsg2^mut/mut mice): reduced
